Square brackets hold non-standard residues; d marks the D form. Peptide text beside a SMILES is read from it.

Assay [1] relates to TMD8 cell xenograft tumors. Kind of assay: Mouse xenograft model. It is filed as in vivo, NCG mice. The protocol:
(§1) Mouse xenograft experiments:
(§2) Six-week-old female NOD prkdc-/- IL-2Rg-/- (NCG) mice purchased from GemPharmatech Co., Lt d we re raised in a SPF- level Laboratory Animal Room. Low -passage 5x106 human TMD8, SU-DHL- 6 or 1x10^7 OCl-LY1 cells at 100μl were premixed with 100μl Matrigel (Corning Biocoat, cat. # 354234) and inoculated subcutaneously into the right flank of mice. When tumors reached an average size of 150 mm3, mice were randomly assigned into treatment groups (10 mg /kg DRI-BCL10- P4) or control groups (5 mg /kg BCL10- Ctl). Peptides were reconstituted in 5% DMSO/PBS and administered by i.v. injection. Tumor volumes were monitored by a digital caliper every other day and calculated using the formula: (smallest diameter2 x largest diameter)/2. Mice were weighed every day and sacrificed at the end of the treatment. T umors and main organs were harvested and we i ghte d at the moment of death. All animal experiments were approved by the Animal Institute Committee of Changhai Hospital, the Second Military Medical University.
(§3) Immunohistochemistry (IHC)
(§4) Formalin-fixed paraffin -embedded tumor xenografts were sectioned, dewaxed and submitted to antigen retrieval. The anti- Ki67 (proteintech, 27309-1) antibody was used at a 1:500 dilution.
(§5) Biotin-conjugated secondary antibodies (MXB biotechnologies, KIT-9710) were used. Then avidin/biotin peroxidase (MXB biotechnologies, KIT-9710) was applied to the slides. Color was developed with diaminobenzoate chromogen peroxidase substrate (MXB biotechnologies, MAX007TM) and counterstained with […] (MXB biotechnologies, MAX007TM). Pictures were obtained using NanoZoomer-S60 microscope ([…]).
(§6) Terminal deoxynucleotidyl transferase dUTP nick end labeling, TUNEL assay was used to detect apoptotic DNA fragmentation. All the experiments were performed according to the kit (KeyGEN Biotech, KGA703) instructions. Briefly, formalin-fixed paraff i n-embedded xenografted tumors were deparaffinized and pre-treated with trypsin to expose DNA. Endogenous peroxidase was quenched using 3% hydrogen peroxide followed by incubation with TdT enzyme for 1 hour. Then, antidigoxigenin-peroxidase was applied to the slides. Color was developed with diaminobenzoate chromogen peroxidase substrate and counterstained with methyl green. Pictures were obtained using NanoZoomer-S60 microscope ([…]).

Assay [2] relates to OCI-LY1 cell xenograft tumors. Kind of assay: Mouse xenograft model. Format: in vivo, NCG mice. Particulars: DRI-BCL10-P4 10 mg/kg or BCL10-Ctl 5 mg/kg daily, i.v.; Figure S8A-C. The protocol:
as §1, §2, §3, §4, §5, §6

The next assay deals with TMD8 cells. It is filed as cell-based, human. An excerpt:
GraphPad Prism software was used to determine GI50 values.

Setting [3] is: TMD8 xenograft, 10 mg/kg, compared with control group.

Broadly, the GI50 is the concentration at which growth is held to half of that of the control. Regarding `CC[C@@H](C)[C@@H](NC(=O)[C@@H](CCCCN)NC(=O)[C@H](NC(=O)[C@@H](Cc1c[nH]c2ccccc12)NC(=O)[C@@H](Cc1ccccc1)NC(=O)[C@@H](CCC(N)=O)NC(=O)[C@@H](CC(N)=O)NC(=O)[C@@H](CCCNC(=N)N)NC(=O)[C@@H](CCCNC(=N)N)NC(=O)[C@@H](CCSC)NC(=O)[C@@H](CCCCN)NC(=O)[C@@H](Cc1c[nH]c2ccccc12)NC(=O)[C@@H](CCCCN)NC(=O)[C@@H](CCCCN)NC(=O)[C@@H](CCCNC(=N)N)NC(=O)[C@H](NC(=O)[C@@H](CO)NC(=O)[C@@H](CO)NC(=O)[C@@H](CCCNC(=N)N)NC(=O)[C@@H](CCCCN)NC(=O)[C@@H](CCCNC(=N)N)NC(=O)[C@@H](C)NC(=O)CNC(=O)[C@@H](CCCCN)NC(=O)[C@@H](CC(C)C)NC(=O)[C@@H](CC(C)C)NC(=O)[C@@H](CC(=O)O)NC(=O)[C@@H](Cc1ccc(O)cc1)NC(=O)[C@@H](CC(C)C)NC(=O)[C@@H](CCC(N)=O)NC(=O)[C@H](N)CCC(=O)O)[C@H](C)O)[C@H](C)CC)C(=O)N[C@H](CCC(N)=O)C(=O)N[C@H](CCCNC(=N)N)C(=O)N[C@H](CC(=O)O)C(=O)O` [DRI-BCL10-P4] (H-[dE][dQ][dL][dY][dD][dL][dL][dK]G[dA][dR][dK][dR][dS][dS][dT][dR][dK][dK][dW][dK][dM][dR][dR][dN][dQ][dF][dW][dI][dK][dI][dQ][dR][dD]-OH), the “growth of TMD8 cell xenograft tumors” value in assay [1] (DRI-BCL10-P4 10 mg/kg Q.d. or BCL10-Ctl 5 mg/kg Q.d., i.v., n=8, p=0.013, Mann-Whitney U test) is on record as “significantly inhibited the growth”. Besides, in assay [1] (setting [3]), the “apoptosis rate in tumor sections (TUNEL staining)” value was “significant increase in the apoptosis rate” and the “proliferation in tumor sections (Ki67 staining)” value is reported as “significant decrease in the proliferation”. The “growth of OCI-LY1 cell xenograft tumors” value in assay [2] is given as “neither peptide significantly suppressed the growth”. For the same molecule, in the assay on TMD8 cells, the GI50 stood at 11.9 ± 6.2 µM.

Values taken from PMC7546004, “Targeting BCL10 by small peptides for the treatment of B cell lymphoma” (Theranostics, 2020).
